Measured values taken from patent US9012431B2, “Boron-containing small molecules as anti-inflammatory agents” (Anacor Pharmaceuticals, Inc., priority 2008, dated 2015).

Key:
TNF-α = assay: Cytokine assay, TNF-α release from PBMC; assay type: cell-based; settings: Homo sapiens, PBMC, 24 h, 1 μg/mL LPS, supernatant at 24 hours
In short: (§1)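 Cytokine released into the medium was the read-out. Thawed human peripheral blood mononuclear cells in RPMI 1640/10% FBS received test article at 0.01–10 μM, in triplicate wells.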

IL-2 = assay: Cytokine assay, IL-2 release from PBMC; assay type: cell-based; settings: human PBMC, 20 ug/mL PHA, supernatant at 24 hours
In short: as §1

IFN-γ = assay: Cytokine assay, IFN-γ release from PBMC; assay type: cell-based; settings: human PBMC, 20 ug/mL PHA, supernatant at 24 hours
In short: as §1

IL-5 = assay: Cytokine assay, IL-5 release from PBMC; assay type: cell-based; settings: human PBMC, 20 ug/mL PHA, supernatant at 48 hours
In short: as §1

IL-10 = assay: Cytokine assay, IL-10 release from PBMC; assay type: cell-based; settings: human PBMC, 20 ug/mL PHA, supernatant at 48 hours
In short: as §1

[1] = test system: T1, PDE4 partially purified from human U-937 myeloid leukemia cells; assay: PDE4 Assay (enzyme from U-937 cells, [3H]cAMP); assay type: biochemical; settings: PDE4 from U-937 cells, Tris buffer pH 7.5, 20 minutes at 25° C.
T1 construct: PDE4 partially purified from human U-937 myeloid leukemia cells was used

[2] = test system: CD-1 (Crl.) derived male mice; assay: Phorbol Ester Induced Mouse Ear Edema Model; assay type: in vivo; settings: topical, 6 h; for inhibition in vivo at 0.2 mg: 0.2 mg/ear × 2 topical; for inhibition in vivo at 1 mg: 1 mg/ear × 2 topical; for inhibition in vivo at 3 mg: 3 mg/ear × 2 topical; for inhibition in vivo at 0.02 mg: 0.02 mg/ear × 2 topical; for inhibition in vivo at 0.067 mg: 0.067 mg/ear × 2 topical
Experimental: 1. In Vivo Anti-Inflammation Activity in Phorbol Ester Induced Mouse Ear Edema Model
[…] Dexamethasone (1 mg/ear×2) used as the positive control was administered topically to test animals using the same application schedule. Ear swelling was then measured by a Dyer model micrometer gauge at 6 hours after PMA application as an index of inflammation. Percent inhibition was calculated according to the formula: [(Ic−It)/Ic]×100%, where Ic and It refer to increase of ear thickness (mm) in control and treated mice, respectively.

BALB/c male mice = assay: Oxazolone Induced Mouse Ear Edema Model; assay type: in vivo; settings: for inhibition in vivo at 0.2 mg: 0.2 mg/ear × 2 topical; for inhibition in vivo at 1 mg: 1 mg/ear × 2 topical
Experimental: 2. In Vivo Anti-Inflammation Activity in Oxazolone Induced Mouse Ear Edema Model
Groups of 5 BALB/c male mice weighing 23±2 g were used. The preshaved abdomens of test animals were sensitized by application of 100 μl, of 1.5% oxazolone solution dissolved in acetone. Seven days after the initial sensitization, test substances, as well as vehicle (acetone:ethanol/1:1, 20 μL/ear) were each administered topically to the anterior and posterior surfaces of the right ear 30 minutes before, and 15 minutes after, challenge by a second application of oxazolone (1% in acetone, […]) via topical route. As a positive control, indomethacin (0.3 mg/ear×2) was administered topically using the same treatment regime as for the test compounds. Twenty-four hours after the second application of oxazolone, the ear thickness of each mouse was measured with a Dyer model micrometer gauge. A 30 percent or more inhibition in ear swelling relative to the vehicle control was considered significant and indicated possible anti-inflammatory activity.

[3] = Acetone:Ethanol/1:1, ear swelling 6 hours after PMA
[4] = Acetone:Ethanol/1:1, ear thickness 24 hours after second oxazolone application
[5] = 95% Ethanol, ear swelling 6 hours after PMA
[6] = […] × 2 topical, 95% Ethanol, ear swelling 6 hours after PMA

SMILES	IC50 (TNF-α)	IC50 (IL-2)	IC50 (IFN-γ)	IC50 (IL-5)	IC50 (IL-10)	IC50 [1]	inhibition in vivo at 1 mg [2, 3]	inhibition in vivo at 1 mg (BALB/c male mice; [4])	also measured
N#Cc1ccc(Oc2ccc(B(O)O)cc2)cc1									melting point: 194 to 198 °C
COC(=O)c1cc(Oc2ccc3c(c2)COB3O)ccc1C#N [D6, 5-(4-Cyano-3-methoxycarbonylphenoxy)-1,3-dihydro-1-hydroxy-2,1-benzoxaborole]	< 1000 nM	< 1000 nM	< 1000 nM	4000 to 10000 nM	4000 to 10000 nM	< 1000 nM	30 to 60%	< 20%	inhibition in vivo at 0.2 mg [2, 3]: < 30%; inhibition in vivo at 0.2 mg (BALB/c male mice; [4]): < 20%
COC(=O)c1cc(Oc2ccc3c(c2)COB3O)ccc1C(N)=O [D7, 5-(4-Carbamoyl-3-methoxycarbonylphenoxy)-1,3-dihydro-1-hydroxy-2,1-benzoxaborole]	< 1000 nM	< 1000 nM	< 1000 nM	< 1000 nM	< 1000 nM	< 1000 nM			inhibition in vivo at 1 mg/kg ([2]; 1 mg/kg × 2 topical, Acetone:Ethanol/1:1, ear swelling 6 hours after PMA): < 30%; inhibition in vivo at 1 mg/kg (BALB/c male mice; 1 mg/kg × 2 topical, Acetone:Ethanol/1:1, ear thickness 24 hours after second oxazolone application): < 20%
COc1cc(Oc2ccc3c(c2)COB3O)ccc1C#N [D12, 5-(4-Cyano-3-methoxyphenoxy)-1,3-dihydro-1-hydroxy-2,1-benzoxaborole]	< 1000 nM	< 1000 nM	< 1000 nM	1000 to 4000 nM	< 1000 nM	< 1000 nM	30 to 60%	30 to 40%	inhibition in vivo at 0.2 mg [2, 3]: < 30%; inhibition in vivo at 0.2 mg (BALB/c male mice; [4]): < 20%
CCOC(=O)c1ccc(Oc2ccc3c(c2)COB3O)cc1OC [D35, 4-(1-Hydroxy-1,3-dihydro-benzo[c][1,2]oxaborol-5-yloxy)-2-methoxy-benzoic acid ethyl ester]	< 1000 nM	< 1000 nM	< 1000 nM			< 1000 nM			melting point: 64.9 to 65.2 °C
COc1cc(Oc2ccc3c(c2)COB3O)ccc1C(=O)O [D36, 4-(1-Hydroxy-1,3-dihydro-benzo[c][1,2]oxaborol-5-yloxy)-2-methoxy-benzoic acid]	> 10000 nM	> 10000 nM	> 10000 nM						melting point: 109.6 to 110.1 °C
N#Cc1ccc(Oc2ccc3c(c2)COB3O)cc1OC1CCCC1 [D37, 2-Cyclopentyloxy-4-(1-hydroxy-1,3-dihydro-benzo[c][1,2]oxaborol-5-yloxy)-benzonitrile]	< 1000 nM	< 1000 nM	< 1000 nM	< 1000 nM	< 1000 nM	< 1000 nM	60 to 90%	< 20%	inhibition in vivo at 3 mg [2, 5]: 60 to 90%
COC(=O)c1ccc(Oc2ccc3c(c2)COB3O)nc1C(=O)OC [D44, 6-(1-Hydroxy-1,3-dihydro-benzo[c][1,2]oxaborol-5-yloxy)-pyridine-2,3-dicarboxylic acid dimethyl ester]	< 1000 nM	< 1000 nM	< 1000 nM			< 1000 nM			melting point: 67.5 to 69.2 °C
COc1nc(Oc2ccc3c(c2)COB3O)ccc1C#N [D46, 6-(1-hydroxy-1,3-dihydrobenzo[c][1,2]oxaborol-5-yloxy)-2-methoxynicotinonitrile]	< 1000 nM	< 1000 nM	< 1000 nM	< 1000 nM	< 1000 nM	< 1000 nM	60 to 90%	< 20%	inhibition in vivo at 0.05 mg ([2]; 0.05 mg/ear × 2 topical, 95% Ethanol, ear swelling 6 hours after PMA): < 30%; inhibition in vivo at 0.1 mg ([2]; 0.1 mg/ear × 2 topical, Acetone:Ethanol/1:1, ear swelling 6 hours after PMA): < 30%; inhibition in vivo at 0.17 mg ([2]; 0.17 mg/ear × 2 topical, 95% Ethanol, ear swelling 6 hours after PMA): < 30%; inhibition in vivo at 0.2 mg [2, 3]: < 30%; inhibition in vivo at 0.5 mg ([2]; 0.5 mg/ear × 2 topical, 95% Ethanol, ear swelling 6 hours after PMA): < 30%; inhibition in vivo at 3 mg [2, 5]: 60 to 90%
CC(C)OC(=O)c1ccc(Oc2ccc3c(c2)COB3O)nc1 [D67, Isopropyl 6-(1-hydroxy-1,3-dihydrobenzo[c][1,2]oxaborol-5-yloxy)nicotinate]	< 1000 nM	< 1000 nM	< 1000 nM	< 1000 nM	< 1000 nM	< 1000 nM	60 to 90%	< 20%	
CCCCOC(=O)c1ccc(Oc2ccc3c(c2)COB3O)nc1 [D68, n-Butyl 6-(1-hydroxy-1,3-dihydrobenzo[c][1,2]oxaborol-5-yloxy)nicotinate]	< 1000 nM	< 1000 nM	4000 to 10000 nM	1000 to 4000 nM	1000 to 4000 nM	< 1000 nM	30 to 60%	< 20%	
N#Cc1ccc(Oc2ccc3c(c2)COB3O)nc1N1CCCC1 [D97, 6-(1-Hydroxy-1,3-dihydro-benzo[c][1,2]oxaborol-5-yloxy)-2-pyrrolidin-1-yl-nicotinonitrile]	< 1000 nM	< 1000 nM	< 1000 nM	< 1000 nM	< 1000 nM	< 1000 nM			inhibition in vivo at 0.19 mg ([2]; 0.19 mg/ear × 2 topical, 95% Ethanol, ear swelling 6 hours after PMA): < 30%; inhibition in vivo at 0.056 mg [2, 6]: < 30%; inhibition in vivo at 0.56 mg [2, 6]: 30 to 60%; inhibition in vivo at 0.56 mg (BALB/c male mice; 0.56 mg/ear × 2 topical, 95% Ethanol, ear thickness 24 hours after second oxazolone application): < 20%
N#Cc1ccc(Oc2ccc3c(c2)COB3O)nc1OCCO [D99, 6-(1-Hydroxy-1,3-dihydro-benzo[c][1,2]oxaborol-5-yloxy)-2-(2-hydroxy-ethoxy)-nicotinonitrile]	< 1000 nM	< 1000 nM	< 1000 nM	< 1000 nM	< 1000 nM	< 1000 nM		< 20%	inhibition in vivo at 0.02 mg [2, 5]: < 30%; inhibition in vivo at 0.067 mg [2, 5]: < 30%; inhibition in vivo at 0.2 mg [2, 5]: < 30%; inhibition in vivo at 3 mg [2, 5]: 60 to 90%; inhibition in vivo at 0.02 mg (BALB/c male mice; 0.02 mg/ear × 2 topical, 95% Ethanol, ear thickness 24 hours after second oxazolone application): < 20%
N#Cc1ccc(Oc2ccc3c(c2)COB3O)nc1N1CCOCC1 [D102, 6-(1-Hydroxy-1,3-dihydro-benzo[c][1,2]oxaborol-5-yloxy)-2-morpholin-4-yl-nicotinonitrile]	< 1000 nM	< 1000 nM	< 1000 nM	< 1000 nM	1000 to 4000 nM	< 1000 nM		< 20%	inhibition in vivo at 0.02 mg [2, 5]: < 30%; inhibition in vivo at 0.067 mg [2, 5]: < 30%; inhibition in vivo at 1 mg [2, 5]: 30 to 60%; inhibition in vivo at 3 mg [2, 5]: 30 to 60%
CCOc1nc(Oc2ccc3c(c2)COB3O)ccc1C#N [D107, 2-Ethoxy-6-(1-hydroxy-1,3-dihydro-benzo[c][1,2]oxaborol-5-yloxy)-nicotinonitrile]	< 1000 nM	< 1000 nM	< 1000 nM	< 1000 nM	< 1000 nM	< 1000 nM			inhibition in vivo at 0.02 mg [2, 5]: < 30%; inhibition in vivo at 0.06 mg ([2]; 0.06 mg/ear × 2 topical, 95% Ethanol, ear swelling 6 hours after PMA): < 30%; inhibition in vivo at 0.067 mg [2, 5]: 30 to 60%; inhibition in vivo at 0.2 mg [2, 5]: 60 to 90%; inhibition in vivo at 0.24 mg ([2]; 0.24 mg/ear × 2 topical, 95% Ethanol, ear swelling 6 hours after PMA): 30 to 60%; inhibition in vivo at 0.8 mg ([2]; 0.8 mg/ear × 2 topical, 95% Ethanol, ear swelling 6 hours after PMA): 60 to 90%; inhibition in vivo at 2.4 mg ([2]; 2.4 mg/ear × 2 topical, 95% Ethanol, ear swelling 6 hours after PMA): 60 to 90%; inhibition in vivo at 2.4 mg (BALB/c male mice; 2.4 mg/ear × 2 topical, 95% Ethanol, ear thickness 24 hours after second oxazolone application): < 20%
CCOc1cc(Oc2ccc3c(c2)COB3O)ccc1C#N [D124, 2-Ethoxy-4-(1-hydroxy-1,3-dihydrobenzo[c][1,2]oxaborol-5-yloxy)benzonitrile]	< 1000 nM	< 1000 nM	< 1000 nM	< 1000 nM	< 1000 nM	< 1000 nM		< 20%	inhibition in vivo at 1 mg [2, 5]: < 30%
